In series [1] the test system is Plutella xylostella. Description: Insecticidal activity against second-instar larvae Plutella xylostella (diamondback moth) in compound treated cabbage leaves assessed as mortality at 10000 ug/mL after 48 hr by leaf dip method. In kind it is functional. The conditions noted are these: foliar.
Series [2] relates to Plutella xylostella. Description: Insecticidal activity against second-instar larvae Plutella xylostella (diamondback moth) in compound treated cabbage leaves assessed as mortality after 48 hr by leaf dip method. In kind it is functional. The conditions noted are these: foliar.
In series [3] the test system is Plutella xylostella. Description: Insecticidal activity against second-instar larvae Plutella xylostella (diamondback moth) in compound treated cabbage leaves assessed as mortality at 5000 ug/mL after 48 hr by leaf dip method. It is filed as functional. As to conditions: foliar.
The nature of series [4]: Aqueous solubility of the compound. It is filed as physicochemical. As to conditions: buffer.

Values after ≈ are worked out from the molar mass of the structure shown.

As usually defined, the mortality is the share of the test organisms that died. The term LC50 denotes the concentration that kills 50% of the test population. For the compound `COc1ccc(C(=O)/C=C/c2ccc(Cl)c(Cl)c2)cc1`, the mortality at 10000 µg/mL in the series with Plutella xylostella [1] came to 100%. Further, in the series on Plutella xylostella [2], the LC50 was 288 µg/mL (≈ 936 µM). In the series with Plutella xylostella [3], the mortality at 5000 µg/mL is 100%.
`O=C(/C=C/c1ccco1)c1ccc([N+](=O)[O-])cc1`: the mortality at 10000 µg/mL in the series with Plutella xylostella [1] turned out to be 23%. Moreover, the mortality at 5000 µg/mL with Plutella xylostella [3] was determined as 16.6%.
With `O=C(/C=C/c1cccs1)c1ccc([N+](=O)[O-])cc1`, the mortality at 10000 µg/mL with Plutella xylostella [1] stood at 30%. The mortality at 5000 µg/mL with Plutella xylostella [3] is 23.3%.
Consider `O=C(/C=C/c1ccc(Cl)cc1)c1ccc2c(c1)OCO2`, for which the mortality at 10000 µg/mL in the series with Plutella xylostella [1] was 23%. The mortality at 5000 µg/mL with Plutella xylostella [3] turned out to be 13.3%.
Consider `O=C(/C=C/c1ccc(Cl)cc1)c1ccc([N+](=O)[O-])cc1`, for which the mortality at 10000 µg/mL in the series with Plutella xylostella [1] turned out to be 26.6%. In the series on Plutella xylostella [3], the mortality at 5000 µg/mL was determined as 20%.
As for `C=CCOc1ccc(C(=O)/C=C/c2ccc(Cl)cc2)cc1`, the mortality at 10000 µg/mL in the series with Plutella xylostella [1] was determined as 100%. Moreover, in the series with Plutella xylostella [2], the LC50 came to 268 µg/mL (≈ 898 µM). In addition, the mortality at 5000 µg/mL in the series on Plutella xylostella [3] is 100%.
In the case of `COc1ccc(C(=O)/C=C/c2ccc(Cl)cc2Cl)cc1`, the mortality at 10000 µg/mL in the series with Plutella xylostella [1] worked out at 100%. Also, the LC50 with Plutella xylostella [2] was determined as 278 µg/mL (≈ 907 µM). In addition, the mortality at 5000 µg/mL in the series on Plutella xylostella [3] was 100%.
Take `COc1ccc(C(=O)/C=C/c2ccc(Br)cc2)cc1`: in the series with Plutella xylostella [1], the mortality at 10000 µg/mL is 10%. Also, the mortality at 5000 µg/mL in the series with Plutella xylostella [3] was 3.3%.
Turning to `COc1ccc(C(=O)/C=C/c2cccc3ccccc23)cc1`, in series [4], the solubility entry is on record as “Insoluble”.
As to `Cc1ccc(C(=O)/C=C/c2ccc(Cl)c(Cl)c2)cc1`, in the series on Plutella xylostella [1], the mortality at 10000 µg/mL turned out to be 83.3%. In the series on Plutella xylostella [3], the mortality at 5000 µg/mL is 60%.
Regarding `COc1ccccc1C(=O)/C=C/c1ccc(Cl)c(Cl)c1`, the mortality at 10000 µg/mL with Plutella xylostella [1] was 63.3%. For the same compound, the mortality at 5000 µg/mL in the series on Plutella xylostella [3] worked out at 50%.
`COc1cccc(C(=O)/C=C/c2ccc(Cl)c(Cl)c2)c1`: the solubility entry in series [4] is reported as “Insoluble”.
Take `COc1ccc(C(=O)/C=C/c2ccc(Cl)c(Cl)c2)cc1OC`: in the series on Plutella xylostella [1], the mortality at 10000 µg/mL was 68%. The mortality at 5000 µg/mL with Plutella xylostella [3] worked out at 46.6%.
Consider `O=C(/C=C/c1ccc(Cl)c(Cl)c1)c1ccc(Cl)cc1`, for which the mortality at 10000 µg/mL in the series on Plutella xylostella [1] is 97.7%. The mortality at 5000 µg/mL with Plutella xylostella [3] turned out to be 60%.
`O=C(/C=C/c1ccc(Cl)c(Cl)c1)c1ccc(Cl)c(Cl)c1`: the mortality at 10000 µg/mL with Plutella xylostella [1] came out at 73.3%. In addition, the mortality at 5000 µg/mL in the series on Plutella xylostella [3] was 46.6%.
In the case of `COc1cc(OC)c(OC)cc1/C=C/C(C)=O`, the mortality at 10000 µg/mL in the series with Plutella xylostella [1] amounted to 26.6%. Also, in the series with Plutella xylostella [3], the mortality at 5000 µg/mL was 0%.
With `COc1cc(C(=O)/C=C/c2ccc(Cl)c(Cl)c2)cc(OC)c1OC`, the solubility entry in series [4] is “Insoluble”.
In the case of `COc1ccc(C(=O)/C=C/c2ccc(F)cc2)cc1`, the mortality at 10000 µg/mL with Plutella xylostella [1] was 33.3%. The mortality at 5000 µg/mL with Plutella xylostella [3] came out at 26.6%.
Regarding `COc1ccc(/C=C/C(=O)c2ccc(Cl)cc2)cc1`, the mortality at 10000 µg/mL in the series on Plutella xylostella [1] amounted to 50%. The mortality at 5000 µg/mL in the series on Plutella xylostella [3] was 26.6%.
In the case of `COc1ccc(C(=O)/C=C/c2ccc(Cl)cc2)cc1`, the mortality at 10000 µg/mL in the series with Plutella xylostella [1] amounted to 100%. For the same compound, the LC50 in the series with Plutella xylostella [2] worked out at 356 µg/mL (≈ 1310 µM). In addition, in the series with Plutella xylostella [3], the mortality at 5000 µg/mL is 100%.
As to `COc1ccc(/C=C/C(C)=O)cc1`, the mortality at 10000 µg/mL in the series on Plutella xylostella [1] was determined as 30%. Further, the mortality at 5000 µg/mL with Plutella xylostella [3] amounted to 26.6%.
As for `O=C(/C=C/c1ccc(Cl)cc1)c1ccc(O)cc1`, in the series with Plutella xylostella [1], the mortality at 10000 µg/mL came out at 100%. Moreover, the LC50 in the series with Plutella xylostella [2] was determined as 871 µg/mL (≈ 3370 µM). Further, the mortality at 5000 µg/mL in the series with Plutella xylostella [3] is 100%.
Take `O=C(/C=C/c1ccc(Cl)cc1)c1ccc(Cl)cc1` [4',4-DICHLOROCHALCONE]: the mortality at 10000 µg/mL in the series on Plutella xylostella [1] was determined as 100%. Moreover, in the series with Plutella xylostella [2], the LC50 was 170 µg/mL (≈ 614 µM). In addition, the mortality at 5000 µg/mL in the series on Plutella xylostella [3] was 100%.
Regarding `COc1ccc(/C=C/C(=O)c2ccc(OC)cc2)cc1` [4,4'-DIMETHOXYCHALCONE], in the series with Plutella xylostella [1], the mortality at 10000 µg/mL is 26.6%. Besides, the mortality at 5000 µg/mL in the series with Plutella xylostella [3] is 16.6%.
Turning to `COc1cc(/C=C/C(C)=O)ccc1O` [DEHYDROZINGERONE], the solubility result in series [4] is given as “Insoluble”.
As to `CC1(C)[C@H](C(=O)O[C@H](C#N)c2cccc(Oc3ccccc3)c2)[C@@H]1C=C(Br)Br` [DELTAMETHRIN], the LC50 in the series with Plutella xylostella [2] stood at 6.25 µg/mL (≈ 12.4 µM).

Values taken from ChEMBL document CHEMBL3045483, “Chalcones as promising pesticidal agents against diamondback moth (Plutella xylostella): microwave-assisted synthesis and structureactivity relationship” (Med Chem Res, 2012).
